# Data as given in patent US20260182575A1, “MOLECULES HAVING PESTICIDAL UTILITY AND INTERMEDIATES AND PROCESSES RELATED THERETO” (CORTEVA AGRISCIENCE LLC, priority 2022, published 2026).
# Legend:
# Type in all cases: in vivo
# [1] = test system: Western Corn Rootworm (Diabrotica virgifera virgifera, DIABVI, WCR); assay: Bioassay 8: western corn rootworm, soil drench, corn root protection; details: AI alone, UgActive AI 1; DIABVI, soil drench, 13 days
# Procedure: Corn seeds were planted in steam pasteurized soil filled greenhouse pots. Western corn rootworm Diabrotica virgifera virgifera eggs supplied from the Corteva Agriscience in Johnston, IA US, were suspended in a 0.08% agar solution added into the soil. Stock solutions of F1 and active ingredients were prepared at a concentration of either 250 or 500 ugai/10 mL for F1 and active ingredients at the ratios of (F1:AI) 1:0.004; 1:0.01; 1:0.02; 1:0.04; 1:0.08; 1:0.1; 1:0.15; 1:0.2; 1:0.4; 1:2; or 1:4, using a 1:1 solution of acetone:water as a diluent. A soil application of solutions were applied as a 10 mL drench over the soil. Plants were grown in the greenhouse for 13 days at 25 C after which the roots were removed from the soil, washed, and measured to determine the length of the median nodal roots. The measured lengths were compared to the infested and un-infested untreated checks to determine the mean percent control offered to protect the corn roots.
# [2] = test system: Corn Earworm (Helicoverpa zea, HELIZE, CEW); assay: Bioassay 4: corn earworm, artificial diet, 128-cell tray; details: AI alone
# Procedure: (§1) Stock solutions were prepared with F1 as well as for each of the active ingredients individually. Test solutions were prepared from the stock solutions. Test solutions were prepared containing F1, the individual active ingredients, and mixtures of F1 with each of the active ingredients. The test solution for F1 was prepared by adding 500 μL of the stock solution to a 25 mL glass vial, then adding 500 μL of a 9:1 mixture of acetone:water. The individual active ingredients were prepared by adding 500 μL of stock solution to a 25 mL glass vial, then adding 500 μL of a 9:1 mixture of acetone:water. The test solutions containing mixtures of F1, and the individual active ingredients were prepared by adding 500 μL of the active ingredient stock solution to a 25 mL glass vial, followed by 500 μL of the F1 stock solution, creating a test solution containing 0.04% (w/v) of F1 and 0.4% (w/v) of the active ingredient. Each test solution was serially diluted to create desired doses of test solutions (F1 at 0.04% (w/v), 0.004% (w/v), 0.0004% (w/v), 0.00004% (w/v), 0.000004% (w/v), and 0.0000004% (w/v) and active ingredients at 0.4% (w/v), 0.04% (w/v), 0.004% (w/v), 0.0004% (w/v), 0.00004% (w/v), and 0.000004% (w/v)).
# (§2) The test solutions were tested against CEW, FAW, and SBL using the following procedure: an artificial lepidopteran diet (Multispecies Lepidopteran Diet, Southland Products) was distributed in 128-cell bioassay trays (Frontier Agricultural Sciences™). 50 μL of test solution was pipetted into a cell in the bioassay tray. (The test solution doses of 0.04% (w/v), 0.004% (w/v), 0.0004% (w/v), 0.00004% (w/v), 0.000004% (w/v), and 0.0000004% (w/v) translated to concentrations of 5, 0.5, 0.05, 0.005, 0.0005, and 0.00005 μg/cm^2 on the diet, respectively.) A reference treatment (solvent check) was treated with the diluent only. Each treatment was replicated 8 times for each species. A 2nd instar CEW, FAW, or SBL larva was placed on top of the diet in each cell and was contained with a clear perforated adhesive lid. Test trays were held at approximately 26° C. and ambient relative humidity (RH) prior to grading.
# (§3) After 5 days, the number of live larvae were recorded from each cell and percent control was measured using Abbott's correction formula (W. S. Abbott, J. Econ. Entomol. 18 (1925), pp. 265-267) as follows:
# (§4) where X=No. of live larvae on solvent check and Y=No. of live larvae on treated diet. In Table B4 the “Expected % Control” was calculated using the method described in Colby S. R., Weeds, 1967, 15, 20-22. Bioassay 5: Neotropical Brown Stink Bug (Euschistus heros, EUSCHE, “BSB”).
# [3] = test system: Soybean Looper (Chrysodeixis includens, PSEPIN, SBL); assay: Bioassay 4: soybean looper, artificial diet, 128-cell tray; details: AI alone
# Procedure: as §1, §2, §3, §4
# [4] = test system: Fall Armyworm (Spodoptera frugiperda, LAPHFR, FAW); assay: Bioassay 4: fall armyworm, artificial diet, 128-cell tray; details: AI alone
# Procedure: as §1, §2, §3, §4
# [5] = test system: Sweet Potato Whitefly (Bemisia tabaci, BEMITA, SPW); assay: Bioassay 2: sweet potato whitefly, cotton seedling foliar spray; details: AI alone
# Procedure: Stock solutions were prepared with F1 as well as for each of the active ingredients individually. Test solutions were prepared from the stock solutions. Test solutions were prepared containing F1, the individual active ingredients, and mixtures of F1 with each of the active ingredients. The test solutions for F1 and the individual active ingredients were prepared by adding 500 μL of stock solution to a 25 mL glass vial, then adding 500 μL of acetone, followed by the addition of 9 mL water with 0.025% Tween® 20 to create a 0.001% (w/v) solution. The test solutions containing mixtures of F1, and the individual active ingredients were prepared by adding 500 μL of the active ingredient stock solution to a 25 mL glass vial, followed by 500 μL of the F1 stock solution, then by the addition of 9 mL water with 0.025% Tween® 20 to create a test solution containing 0.001% (w/v) F1 and 0.001% (w/v) of the active ingredient. Each test solution was serially diluted to create desired doses of test solutions (0.001% (w/v), 0.0001% (w/v), 0.00001% (w/v), 0.000001% (w/v), 0.0000001% (w/v), and 0.00000001% (w/v)).
# The test solutions were tested against SPW using the following procedure: Cotton seedlings grown in 3-inch pots, pruned so that only one true leaf remained, were used as test substrate. Adult B. tabaci were allowed to colonize the cotton plants and lay eggs for 24 hours after which all adults were removed from the plants using compressed air. Plants were monitored for egg development, and when crawler emergence was underway (>25% emergence based on visual examination using a microscope), the plants were sprayed using the test solutions and methods described above for green peach aphids (GPA). Treated plants were held in a holding room at approximately 25° C. and ambient relative humidity (RH) prior to grading. Evaluation was conducted by counting the number of developed 2-3 instar nymphs per plant under a microscope 7-9 days after treatment. Percent control was measured using Abbott's correction formula (W. S. Abbott, J. Econ. Entomol. 18 (1925), pp. 265-267) as follows:
# where X=No. of live nymphs on solvent check plants and Y=No. of live nymphs on treated plants. In Table B2 the “Expected % Control” was calculated using the method described in Colby S. R., Weeds, 1967, 15, 20-22. Bioassay 3: Western Flower Thrips (Frankliniella occidentalis, FRANOC, “WFT”).
# [6] = test system: Western Flower Thrips (Frankliniella occidentalis, FRANOC, WFT); assay: Bioassay 3: western flower thrips, cotton leaf disc dip; details: 3 days
# Procedure: Stock solutions of F1 and various active ingredients were prepared initially at a concentration of 0.1 mg/mL using acetone as a diluent. Stock solutions were prepared with F1 as well as for each of the active ingredients individually. Test solutions were prepared from the stock solutions. Test solutions were prepared containing F1, the individual active ingredients, and mixtures of F1 with each of the active ingredients. The test solutions for F1 and the individual active ingredients were prepared by adding 500 μL of stock solution to a 25 mL glass vial, then adding 500 μL of acetone, followed by the addition of 9 mL water with 0.025% Tween® 20 to create a 0.0005% (w/v) solution. The test solutions containing mixtures of F1, and the individual active ingredients were prepared by adding 500 μL of the active ingredient stock solution to a 25 mL glass vial, followed by 500 μL of the F1 stock solution, then by the addition of 9 mL water with 0.025% Tween® 20 to create a test solution containing 0.0005% (w/v) F1 and 0.0005% (w/v) of the active ingredient. Each test solution was serially diluted to create desired doses of test solutions (0.0005% (w/v), 0.000125% (w/v), 0.00003125% (w/v), 0.0000078% (w/v), and 0.00000195% (w/v)).
# The test solutions were tested against WFT using the following procedure: Leaf discs (2.7 cm in diameter) were cut from the true leaves of cotton plants. Leaf discs were dipped into the test solutions and shaken to ensure complete coverage of the leaf disc and then placed in Millipore® PetriSlides containing a filter paper disc. Treated leaf discs were air dried for approximately 1 hour. Each leaf disc was infested with 5 WFT (9-10-day old nymphs) by placement on each leaf disc, and the PetriSlides were capped to prevent escape. Each treatment was replicated three times and the test treatments were held at approximately 26° C. and ambient relative humidity (RH) prior to grading. Reference discs (solvent check) were treated with the diluent only. Evaluation was conducted by counting the number of live WFT under magnification 3 days after treatment. Percent control was measured using Abbott's correction formula (W. S. Abbott, J. Econ. Entomol. 18 (1925), pp. 265-267) as follows:
# where X=No. of live nymphs on solvent check leaf discs and Y=No. of live nymphs on treated leaf discs. In Table B3 the “Expected % Control” was calculated using the method described in Colby S. R., Weeds, 1967, 15, 20-22. Bioassay 4: Corn Earworm (Helicoverpa zea, HELIZE, “CEW”), Fall Armyworm (Spodoptera frugiperda, LAPHFR, “FAW”), and Soybean Looper (Chrysodeixis includens, PSEPIN, “SBL”).
# [7] = test system: Green Peach Aphid (Myzus persicae, MYZUPE, GPA); assay: Bioassay 1: green peach aphid, cabbage seedling foliar spray; details: AI alone at the rate of Wt Ratio F1:AI 1:40000 (F1 0.04), 3 days
# Procedure: Bioassay 1: Green Peach Aphid (Myzus persicae, MYZUPE, “GPA”).
# Stock solutions of F1 and various active ingredients were prepared initially at a concentration of 4 milligrams per milliliter (mg/mL) for F1 and 0.1 mg/mL for the active ingredients, respectively, using a 1:1 mixture of acetone:methanol as a diluent. Stock solutions were prepared with F1 as well as for each of the active ingredients individually. Test solutions were prepared from the stock solutions. Test solutions were prepared containing F1, the individual active ingredients, and mixtures of F1 with each of the active ingredients. The test solutions for F1 and the individual active ingredients were prepared by adding 750 microliters (μL) of stock solution to a 25 mL glass vial, then adding 750 μL of 1:1 acetone:methanol solvent, followed by the addition of 13.5 mL water with 0.025% Tween® 20 to create a 0.0005% (weight/volume (w/v)) solution. The test solutions containing mixtures of F1, and the individual active ingredients were prepared by adding 750 μL of the active ingredient stock solution to a 25 mL glass vial, followed by 750 μL of the F1 stock solution, then by the addition of 13.5 mL water with 0.025% Tween® 20 to create a test solution containing 0.0005% (w/v) F1 and 0.0005% (w/v) of the active ingredient. Each test solution was serially diluted to create desired doses of test solutions (0.0005% (w/v), 0.000125% (w/v), 0.00003125% (w/v), 0.0000078% (w/v), 0.00000195% (w/v), and 0.0000005% (w/v)). In test solutions containing mixtures of F1 and the active ingredients, the active ingredients were diluted as described above, but the concentration of F1 was held constant (0.04% (w/v)).
# The test solutions were tested against GPA using the following procedure: cabbage seedlings, grown in 3-inch pots with 2-3 small (3-5 centimeter (cm)) true leaves, were used as test substrate. The seedlings were infested with 20-50 GPA (wingless adult and nymph stages) one day prior to chemical application. Four pots with individual seedlings were used for each treatment. A hand-held aspirator-type sprayer was used for spraying a solution to both sides of […] leaves until runoff. Reference plants (solvent check) were sprayed with the diluent only (0.025% Tween® 20 and 10% acetone:methanol (1:1) in water). Treated plants were held in a holding room for three days at approximately 25° C. and ambient relative humidity (RH about 20% to about 45%) prior to grading. Evaluation was conducted by counting the number of live aphids per plant under a microscope three days after treatment. Percent control was measured using Abbott's correction formula (W. S. Abbott, J. Econ. Entomol. 18 (1925), pp. 265-267) as follows:
# where X=No. of live aphids on solvent check plants and Y=No. of live aphids on treated plants. In Table B1 the “Expected % Control” was calculated using the method described in Colby S. R., Weeds, 1967, 15, 20-22. Bioassay 2: Sweet Potato Whitefly (Bemisia tabaci, BEMITA, “SPW”).
SMILES,Average % Control AI [1],Average % Control AI ([2]; 0.000004 wt %),Average % Control AI ([2]; 0.00004 wt %),Average % Control AI ([3]; 0.000004 wt %),Average % Control AI ([4]; 0.000004 wt %),"Average % Control AI ([5]; Wt % AI 0.000001, 7-9 days)","Average % Control AI ([5]; Wt % AI 0.00001, 7-9 days)",Average % Control AI ([6]; AI alone at 1:1 rate to F1 0.195 (10^-6 Wt %)),Average % Control AI ([6]; AI alone at 1:1 rate to F1 3.125 (10^-6 Wt %)),Average % Control AI ([3]; 0.00004 wt %),Average % Control AI ([4]; 0.00004 wt %),"Average % Control AI ([5]; Wt % AI 0.0001, 7-9 days)",Average % Control AI [7]
CN/C(=N\[N+](=O)[O-])NCc1cnc(Cl)s1 [Clothianidin],14.8%,–,–,–,–,–,–,–,–,–,–,–,–
O=c1c(-c2cccc(C(F)(F)F)c2)c([O-])[n+](Cc2cncnc2)c2ccccn12 [Triflumezopyrim],–,0.0%,0.0%,12.5%,0.0%,10.1%,31.4%,–,–,–,–,–,–
N#Cc1nn(-c2c(Cl)cc(C(F)(F)F)cc2Cl)c(N)c1[S+]([O-])C(F)(F)F (centres unmarked) [Fipronil],–,0.0%,0.0%,0.0%,0.0%,–,–,9.5%,42.9%,0.0%,0.0%,8.9%,–
CO/N=C(/C1=NOCCO1)c1ccccc1Oc1ncnc(Oc2ccccc2Cl)c1F [Fluoxastrobin],0.0%,–,–,–,–,–,–,–,–,–,–,–,–
CNC(=O)c1cc(Cl)cc(C)c1NC(=O)c1cc(Br)nn1-c1ncccc1Cl [Chlorantraniliprole],–,0.0%,0.0%,37.5%,62.5%,–,–,–,–,–,–,28.0%,8.1%
